# Test results reported in patent publication US20070043000A1, “Immunosuppresive effects of pteridine derivatives” (priority 2003, published 2007).
# Like-named read-outs stand apart in the source and are kept apart here.
# What was measured:
# Assay type in all cases: cell-based, human
# [1] = test system: peripheral blood mononuclear cells (PBMC); assay: Mixed lymphocyte reaction (MLR) test
# Method: All reagents were dissolved in 0.5 ml dimethylsulfoxide (hereinafter referred as DMSO) and further diluted in culture medium before use for the following in vitro experiments. The commercially available culture medium consisted of RPMI-1640+10% foetal calf serum (FCS). Peripheral blood mononuclear cells (hereinafter referred as PBMC) were isolated from heparinized peripheral blood by density gradient centrifugation over Lymphoprep (Nycomed, Maorstua, Norway). Allogeneic PBMC or […]-Barr Virus-transformed human B cells [commercially available under the trade name RPMI1788 (ATCC name CCL156)] which strongly express B7-1 and B7-2 antigens were used as stimulator cells after irradiation with 30 Gy. MLR was performed in triplicate wells. After 5 days incubation at 37° C., 1 μCi [^3H]-thymidine was added to each cup. After a further 16 hours incubation, cells were harvested and counted in a β-counter. Inhibition of proliferation by a compound (drug) described in some of the previous examples was counted using the formula: [formula] wherein cpm is the thymidine count per minute. TNF-Alpha and IL-1 Beta Assays
# [2] = test system: TNF-alpha production by PBMC; assay: TNF-alpha assay, LPS-stimulated PBMC, sandwich ELISA
# Method: (§1) All reagents were dissolved in 0.5 ml dimethylsulfoxide (hereinafter referred as DMSO) and further diluted in culture medium before use for the following in vitro experiments. The commercially available culture medium consisted of RPMI-1640+10% foetal calf serum (FCS). Peripheral blood mononuclear cells (herein referred as PBMC), in response to stimulation by lipopolysaccharide (LPS), a gram-negative bacterial endotoxin, produce various […], in particular human TNF-alpha and II-1 beta. The inhibition of the activation of PBMC can be measured by the level of suppression of the production of TNF-alpha or IL-1 beta by PBMC in response to stimulation by LPS. Such inhibition measurement was performed as follows: PBMC were isolated from heparinized peripheral blood (Buffy coat) by density gradient centrifugation. LPS is then added to the PMBC suspension in complete medium (10^6 cells/ml) at a final concentration of 1 μg/ml. The compound to be tested was added at different dilution levels, and the cells were incubated at 37° C. for 72 hours. The supernatants were collected, and TNF-alpha or II-1 beta concentrations were measured with respectively an anti-TNF antibody or an anti-IL-1 beta antibody in a sandwich ELISA. The percent inhibition was calculated as: % inhibition=(pg/ml in sample−pg/ml min.)/(pg/ml max.−pg/ml min.)−1 wherein: min.: pg/ml in culture medium without test compound, and • max.: pg/ml in culture medium+LPS without test compound.
# [3] = test system: IL-1 beta production by PBMC; assay: IL-1 beta assay, LPS-stimulated PBMC, sandwich ELISA
# Method: as §1
# [4] = Table 7, same conditions as example 26
# [5] = Table 7, same conditions as example 26, read-out: TNFα IC50
# [6] = Table 7, same conditions as example 26, read-out: IL1β IC50
# [7] = Table 2, [3H]-thymidine incorporation after 5 days incubation
# [8] = Table 2, LPS 1 μg/ml, 72 hours, read-out: TNF IC50
# [9] = Table 2, LPS 1 μg/ml, 72 hours, read-out: IL-1 IC50
Molecule,"IC50 [1, 4]","IC50 [2, 5]","IC50 [3, 6]","IC50 [1, 7]","IC50 [2, 8]","IC50 [3, 9]"
"Cn1c(=O)n(CCCC#N)c(=O)c2nc(-c3ccccc3)c(Cl)nc21 [Example 67, 3-butyronitrile-7-chloro-1-methyl-6-phenyl-lumazine]",4.8 µM,0.7 µM,0.6 µM,,,
"COc1ccc(-c2nc3c(=O)[nH]c(=O)n(C)c3nc2Br)cc1OC [Example 50, 7-bromo-6-(3,4-dimethoxyphenyl)-1-methyl-lumazine]",4 µM,1 µM,0.6 µM,,,
"Cn1c(=O)n(CCCC(=O)OC(C)(C)C)c(=O)c2nc(-c3ccccc3)c(Cl)nc21 [Example 89, 7-chloro-3-(t-butyl butyrate)-1-methyl-6-phenyl-lumazine]",4.2 µM,5.6 µM,2.1 µM,,,
"Cn1c(=O)c2nc(-c3ccc(O)cc3)c(Br)nc2n(C)c1=O [Example 84, 7-bromo-1,3-dimethyl-6-(4-hydroxyphenyl)-lumazine]",4.1 µM,0.9 µM,3.9 µM,,,
"COc1cccc(OC)c1-c1nc2c(=O)[nH]c(=O)n(C)c2nc1Cl [Example 44, 7-chloro-(2,6-dimethoxyphenyl)-1-methyl-lumazine]",4.9 µM,5.9 µM,0.5 µM,,,
"CCOC(=O)CCCn1c(=O)c2nc(-c3ccc(OC)c(OC)c3)c(Br)nc2n(C)c1=O [Example 79, 7-bromo-6-(3,4-dimethoxyphenyl)-3-(ethylbutyrate)-1-methyl-lumazine]",4.7 µM,0.7 µM,0.2 µM,,,
"COc1ccc(-c2nc3c(=O)n(CCN4CCOCC4)c(=O)n(C)c3nc2Br)cc1OC [Example 82, 7-bromo-1-methyl-3-(2-morpholinoethyl)-6-(3,4dimethoxyphenyl)-lumazine]",4.6 µM,10 µM,5.7 µM,,,
"CCOC(=O)CCCCn1c(=O)c2nc(-c3ccccc3)c(Cl)nc2n(C)c1=O [Example 72, 7-chloro-3-(ethyl pentanoate)-1-methyl-6-phenyl-lumazine]",3.5 µM,3.4 µM,0.6 µM,,,
"CCOC(=O)Cn1c(=O)c2nc(-c3ccccc3)c(Cl)nc2n(C)c1=O [Example 71, 7-chloro-3-(ethyl acetate)-1-methyl-6-phenyl-lumazine]",2.8 µM,3.4 µM,0.6 µM,,,
"CCOC(=O)CCCn1c(=O)n(C)c(=O)c2nc(-c3ccccc3)c(Cl)nc21 [Example 56, 7-chloro-1-(ethyl butyrate)-3-methyl-6-phenyl-lumazine]",4.9 µM,0.5 µM,0.6 µM,,,
"Cn1c(=O)n(CCN2CCOCC2)c(=O)c2nc(-c3ccccc3)c(Br)nc21 [Example 81, 7-bromo-1-methyl-3-(2-morpholinoethyl)-6-phenyl-lumazine]",4.7 µM,1.7 µM,5.4 µM,,,
7-chloro-3-(chlorophenyl)-1-methyl-lumazine [Example 46],5.7 µM,4.7 µM,0.9 µM,,,
"CC(C)OC(=O)CCCn1c(=O)c2nc(-c3ccccc3)c(Cl)nc2n(C)c1=O [Example 87, 7-chloro-3-(isopropyl 4-butyrate)-1-methyl-6-phenyl-lumazine]",5.4 µM,6.1 µM,2.8 µM,,,
"CCOC(=O)CCCn1c(=O)c2nc(-c3ccccc3)c(Br)nc2n(C)c1=O [Example 70, 7-bromo-3-(ethyl butyrate)-1-methyl-6-phenyl-lumazine]",5 µM,5.5 µM,3.5 µM,,,
"Cn1c(=O)n(CCCC(N)=O)c(=O)c2nc(-c3ccccc3)c(Cl)nc21 [Example 90, 3-(4-butyramido)-7-chloro-1-methyl6-phenyl-lumazine]",3.9 µM,4.9 µM,1.6 µM,,,
"Cn1c(=O)[nH]c(=O)c2nc(-c3ccccc3Cl)c(Cl)nc21 [Example 45, 7-chloro-(2-chlorophenyl)-1-methyl-lumazine]",3.9 µM,2.3 µM,0.3 µM,,,

Molecule,"IC50 [1, 4]","IC50 [2, 5]","IC50 [3, 6]","IC50 [1, 7]","IC50 [2, 8]","IC50 [3, 9]"
"Cc1ccc(-c2nc3c(=O)[nH]c(=O)n(C)c3nc2Cl)cc1 [Example 52, 7-chloro-1-methyl-6-(4-methylphenyl)-lumazine]",3.5 µM,1.1 µM,,,,
"CCOC(=O)CCCn1c(=O)c2nc(-c3ccccc3)c(Cl)nc2n(CC)c1=O [Example 68, 7-chloro-1-ethyl-3-(ethyl butyrate)-6-phenyl-lumazine]",6.8 µM,3.1 µM,0.6 µM,,,
"CCOC(=O)CCCn1c(=O)c2nc(-c3ccccc3)c(Cl)nc2n(C)c1=O [Example 55, 7-chloro-3-(ethyl butyrate)-1-methyl-6-phenyl-lumazine]",4.9 µM,0.5 µM,0.6 µM,,,
"CC(=O)Nn1c(=O)c2nc(-c3ccccc3)c(Cl)nc2n(C)c1=O [Example 69, 3-acetamido-7-chloro-1-methyl-6-phenyl-lumazine]",4.5 µM,5.8 µM,3.4 µM,,,
"COc1ccc(-c2nc3c(=O)[nH]c(=O)n(C)c3nc2Cl)cc1OC [Example 19, 1-methyl-6-(3′,4′-dimethoxyphenyl)-7-chloro-lumazine]",,,,5.1 µM,1.1 µM,
"Cn1c(=O)c2nc(-c3ccccc3)c(Cl)nc2n(CCc2ccccc2)c1=O [Example 60, 7-chloro-1-(2-phenylethyl)-3-methyl-6-phenyl-lumazine]",3.5 µM,5.8 µM,4.1 µM,,,
"O=c1[nH]c(=O)n(-c2ccccc2)c2nc(Cl)c(-c3ccccc3)nc12 [Example 17, 1,6-diphenyl-7-chloro-lumazine]",,,,3 µM,0.8 µM,0.2 µM
"COc1cccc(-c2nc3c(=O)[nH]c(=O)n(C)c3nc2Cl)c1 [Example 43, 7-chloro-6-(3-methoxyphenyl)-1-methyl-lumazine]",4.9 µM,3.7 µM,2 µM,,,
"CCn1c(=O)n(CCCC(=O)O)c(=O)c2nc(-c3ccccc3)c(Cl)nc21 [Example 86, 7-chloro-3-(n-butyric acid)-1-ethyl-6-phenyl-lumazine]",4.6 µM,8.4 µM,2.5 µM,,,
"Cn1c(=O)[nH]c(=O)c2nc(-c3ccc(Cl)cc3)c(Cl)nc21 [Example 54, 7-chloro-6-(4-chlorophenyl)-1-methyl-lumazine]",,3.8 µM,0.5 µM,,,
"Cc1ccc(-c2nc3c(=O)[nH]c(=O)n(C)c3nc2Cl)cc1 [Example 16, 1-methyl-6-(4′-methylphenyl)-7-chloro-lumazine]",,,,3.6 µM,1.1 µM,
"Cn1c(=O)[nH]c(=O)c2nc(-c3ccc(Cl)cc3)c(Cl)nc21 [Example 20, 1-methyl-6-(4′-chlorophenyl)-7-chloro-lumazine]",,,,,3.8 µM,0.4 µM
"Cn1c(=O)[nH]c2nc(Cl)c(-c3ccccc3)nc2c1=O [Example 6, 3-methyl-6-phenyl-7-chloro-lumazine]",,,,,3 µM,0.4 µM
"Cn1c(=O)[nH]c(=O)c2nc(-c3ccccc3)c(Cl)nc21 [Example 14, 1-methyl-6-phenyl-7-chloro-lumazine]",,,,4.1 µM,,0.35 µM
"O=c1[nH]c(=O)n(Cc2ccccc2)c2nc(Cl)c(-c3ccccc3)nc12 [Example 18, 1-benzyl-6-phenyl-7-chloro-lumazine]",,,,4.4 µM,4.5 µM,
